Data on 62 compounds can be found in the Kinase Knowledgebase extract (Sharma et al. 2016).

The target in this assay is MAPK14 (human) (UniProt Q16539). As to the kind of experiment: Inhibition of MAPK14 Kinase Activity.
MAPK14 (human), sequence (Q16539 whole entry, looked up): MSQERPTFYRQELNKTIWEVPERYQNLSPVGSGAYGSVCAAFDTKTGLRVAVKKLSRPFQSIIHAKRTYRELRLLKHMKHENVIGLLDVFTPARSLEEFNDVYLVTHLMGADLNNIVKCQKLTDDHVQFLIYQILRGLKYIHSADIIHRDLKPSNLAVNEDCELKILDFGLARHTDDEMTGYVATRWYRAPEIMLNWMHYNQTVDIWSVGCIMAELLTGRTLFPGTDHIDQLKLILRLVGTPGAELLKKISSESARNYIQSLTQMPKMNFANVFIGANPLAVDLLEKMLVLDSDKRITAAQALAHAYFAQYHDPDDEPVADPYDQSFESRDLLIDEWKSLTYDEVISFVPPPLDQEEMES

`CN1CCC(n2c(=O)[nH]c3cc(Nc4ccccc4)ccc32)C1` (configuration not stated): the IC50 is below 1000 nM.
Next, `CC(C)(CN)n1c(=O)[nH]c2cc(Nc3ccc(F)cc3F)ccc21`: below 1000 nM; `CN1CCC(n2c(=O)[nH]c3cc(Nc4ccccc4F)ccc32)C1` (configuration not stated): below 1000 nM.
For `O=c1[nH]c2cc(Nc3ccccc3F)ccc2n1CC1CCCCC1`, the concentration for half-maximal inhibition (IC50) is below 1000 nM.
Next, `O=c1[nH]c2cc(Nc3ccccc3)ccc2n1Cc1c(F)cccc1F`: below 1000 nM; `CNCC(C)(C)n1c(=O)[nH]c2cc(Nc3ccccc3C)ccc21`: below 1000 nM; `Cc1ccccc1Nc1ccc2c(c1)[nH]c(=O)n2C1CCNC1` (configuration not stated): below 1000 nM.
`CC(C)(C)n1c(=O)[nH]c2cc(Nc3ccccc3)ccc21` gave a 50% inhibitory concentration (IC50) below 1000 nM.
Then `O=c1[nH]c2cc(Nc3ccccc3)ccc2n1CCc1ccccc1`, with below 1000 nM; and `O=c1[nH]c2cc(Nc3ccccc3)ccc2n1C1CCCc2ccccc21` (configuration not stated), with below 1000 nM; and `COc1ccccc1Nc1ccc2c(c1)[nH]c(=O)n2CC1CCCCC1`, with below 1000 nM.
Next, `Cc1ccccc1Nc1cc2[nH]c(=O)n(CC3CCCCC3)c2cc1N(C)CCN(C)C`: below 1000 nM.
Take `O=c1[nH]c2cc(Nc3cccc(F)c3)ccc2n1CC1CCCCC1`: the 50% inhibitory concentration (IC50) is below 1000 nM.
Then `O=c1[nH]c2cc(Nc3ccccc3)ccc2n1C1CCCC1`, with below 1000 nM; and `O=c1[nH]c2cc(Nc3ccccc3)ccc2n1Cc1cccnc1`, with below 1000 nM; and `O=c1[nH]c2cc(Nc3ccc(F)cc3F)ccc2n1C1CCNC1` (configuration not stated), with below 1000 nM.
For the compound `CNCC(C)(C)n1c(=O)[nH]c2cc(Nc3ccc(F)cc3)ccc21`, the 50% inhibitory concentration (IC50) was below 1000 nM.
In turn, `CCS(=O)(=O)N1CCC(n2c(=O)[nH]c3cc(Nc4ccccc4C)ccc32)C1` (configuration not stated) displayed an IC50 below 1000 nM.
In the case of `CNCC(C)(C)n1c(=O)[nH]c2cc(Nc3ccccc3F)ccc21`, the IC50 was below 1000 nM.
Next, `CCS(=O)(=O)N1CCC(n2c(=O)[nH]c3cc(Nc4ccc(F)cc4F)ccc32)C1` (configuration not stated): below 1000 nM.
Then `O=c1[nH]c2cc(Nc3ccccc3)ccc2n1-c1ccccc1`, with below 1000 nM; and `Cc1ccccc1Nc1ccc2c(c1)[nH]c(=O)n2CC1CCCCC1`, with below 1000 nM; and `O=c1[nH]c2cc(Nc3ccccc3F)c(N3CCNCC3)cc2n1CC1CCCCC1`, with below 1000 nM.
Next, `COc1cccc(Cn2c(=O)[nH]c3cc(Nc4ccccc4)ccc32)c1`: below 1000 nM.
For the compound `CCS(=O)(=O)N1CCC(n2c(=O)[nH]c3cc(Nc4ccccc4)ccc32)C1` (configuration not stated), the half-maximal inhibitory concentration (IC50) is below 1000 nM.
For `C=C/C(=C\C=C(/C)F)Nc1ccc2c(c1)[nH]c(=O)n2C(C)(C)CN(C)C`, the 50% inhibitory concentration (IC50) is below 1000 nM.
Then `Cc1ccccc1Nc1ccc2c(c1)[nH]c(=O)n2C1CCN(C)C1` (configuration not stated), with below 1000 nM; and `O=c1[nH]c2cc(Nc3ccc(F)cc3F)ccc2n1CC1CCCCC1`, with below 1000 nM.
Next, `O=c1[nH]c2cc(Nc3ccccc3)ccc2n1C1CCNC1` (configuration not stated): below 1000 nM; `CC(C)(CN)n1c(=O)[nH]c2cc(Nc3ccc(F)cc3)ccc21`: below 1000 nM; `O=c1[nH]c2cc(Nc3ccccc3F)ccc2n1C1CCNC1` (configuration not stated): below 1000 nM.
Then `CC(c1ccccc1)n1c(=O)[nH]c2cc(Nc3ccccc3)ccc21` (configuration not stated), with below 1000 nM; and `Cc1ccccc1Nc1cc2[nH]c(=O)n(CC3CCCCC3)c2cc1N(C)CCCN(C)C`, with below 1000 nM.
`O=c1[nH]c2cc(Nc3ccc(F)cc3)ccc2n1C1CCNC1` (configuration not stated): the concentration for half-maximal inhibition (IC50) was below 1000 nM.
Next, `CC(C)(CN)n1c(=O)[nH]c2cc(Nc3ccccc3)ccc21`: below 1000 nM; `CC(C1CCCCC1)n1c(=O)[nH]c2cc(Nc3ccccc3)ccc21` (configuration not stated): below 1000 nM.
Next, `CNCC(C)(C)n1c(=O)[nH]c2cc(Nc3ccccc3)ccc21`: below 1000 nM.
The compound `O=c1[nH]c2cc(Nc3ccccc3)ccc2n1C1CCc2ccccc21` (configuration not stated) displayed an IC50 below 1000 nM.
The compound `CS(=O)(=O)N1CCC(n2c(=O)[nH]c3cc(Nc4ccc(F)cc4)ccc32)C1` (configuration not stated) showed an IC50 below 1000 nM.
Consider `Cc1ccc(Nc2ccc3c(c2)[nH]c(=O)n3CC2CCCCC2)cc1N`, for which the IC50 was below 1000 nM.
Then `O=c1[nH]c2cc(Nc3ccccc3)c(N3CCNCC3)cc2n1CC1CCCCC1`, with below 1000 nM.
Then `CN1CCN(c2cc3c(cc2Nc2ccccc2)[nH]c(=O)n3CC2CCCCC2)CC1`, with below 1000 nM.
Next, `CCS(=O)(=O)N1CCC(n2c(=O)[nH]c3cc(Nc4ccccc4F)ccc32)C1` (configuration not stated): below 1000 nM; `CCS(=O)(=O)N1CCC(n2c(=O)[nH]c3cc(Nc4ccc(F)cc4)ccc32)C1` (configuration not stated): below 1000 nM.
For the compound `CN1CCC(n2c(=O)[nH]c3cc(Nc4ccc(F)cc4)ccc32)C1` (configuration not stated), the IC50 is below 1000 nM.
Next, `Cc1ccccc1Nc1cc2[nH]c(=O)n(CC3CCCCC3)c2cc1N1CCN(C)CC1`: below 1000 nM; `CS(=O)(=O)N1CCC(n2c(=O)[nH]c3cc(Nc4ccc(F)cc4F)ccc32)C1` (configuration not stated): below 1000 nM; `CN(C)CC(C)(C)n1c(=O)[nH]c2cc(Nc3ccc(F)cc3F)ccc21`: below 1000 nM.
With `O=c1[nH]c2cc(Nc3ccccc3)ccc2n1Cc1ccccc1`, the IC50 is below 1000 nM.
With `O=c1[nH]c2cc(Nc3ccccc3)ccc2n1CC1CCCO1` (configuration not stated), the IC50 is below 1000 nM.
For the compound `Cc1ccccc1Nc1ccc2c(c1)[nH]c(=O)n2C1CCN(S(C)(=O)=O)C1` (configuration not stated), the half-maximal inhibitory concentration (IC50) is below 1000 nM.
Then `CN1CCC(n2c(=O)[nH]c3cc(Nc4ccc(F)cc4F)ccc32)C1` (configuration not stated), with below 1000 nM; and `CC(C)(CN)n1c(=O)[nH]c2cc(Nc3ccccc3F)ccc21`, with below 1000 nM; and `CN(C)CC(C)(C)n1c(=O)[nH]c2cc(Nc3ccccc3F)ccc21`, with below 1000 nM.
Then `Cc1ccccc1Nc1ccc2c(c1)[nH]c(=O)n2C(C)(C)CN`, with below 1000 nM.
Next, `Cc1ccccc1Nc1ccc2c(c1)[nH]c(=O)n2C(C)(C)CN(C)C`: below 1000 nM.
Consider `CN1CCN(c2cc3c(cc2Nc2ccccc2F)[nH]c(=O)n3C2CCCC2)CC1`, for which the half-maximal inhibitory concentration (IC50) was below 1000 nM.
Compound `O=c1[nH]c2cc(Nc3ccc(F)c(F)c3)ccc2n1CC1CCCCC1` came in with an IC50 below 1000 nM.
The compound `CS(=O)(=O)N1CCC(n2c(=O)[nH]c3cc(Nc4ccccc4F)ccc32)C1` (configuration not stated) had a half-maximal inhibitory concentration (IC50) below 1000 nM.
Next, `O=c1[nH]c2cc(Nc3ccccc3)ccc2n1CC1CCCCC1`: below 1000 nM.
With `CN(C)CC(C)(C)n1c(=O)[nH]c2cc(Nc3ccccc3)ccc21`, the IC50 is below 1000 nM.
Then `O=c1[nH]c2cc(Nc3ccc(F)cc3)ccc2n1CC1CCCCC1`, with below 1000 nM.

The IC50 is the point on the concentration scale where inhibition reaches its midpoint. The low end stands for greater potency in that assay, the high end for weaker potency in that assay.
